Laboratory results reported in patent US10428347B2, “Herbicide-detoxifying enzymes and uses thereof” (priority 2017, dated 2019).
“And” between values parts separate entries of the source, which are not always exact repeats. Identical values can stand only once. Like-named read-outs stand apart in the source and are kept apart here.

Columns and labels:
soybean = experiment: Spray tank dicamba treated with ChD crude cell lysate, applied to field soybean; assay type: in vivo; conditions: field soybean V2-V3, 2 ml of tank sample (about 200 mg/L dicamba, with or without 5% v/v crude cell lysate for 10 minutes), one week after application (FIG. 15)
Procedure: Chlorothalonil dehalogenase (ChD, SEQ ID NO: 168) was prepared as a crude cell lysate as described above in Example 5. […] A 5% v/v solution of the crude cell lysate containing the ChD enzyme was added and the tank was run for an additional 10 minutes. […] Each of the samples was frozen immediately after collection from the tank. Samples were transported to the field on ice to ensure that enzyme activity was halted.

[1] = HPLC; for Dicamba (ppm): samples diluted to expected 35 ppm
Procedure: A Bacillus subtilis (A64) control reaction, which was supernatant with no SM1 enzyme was performed in parallel. The reactions were incubated at 37° C. with 400 rpm stirring for two hours. Aliquots of the reactions were collected at time 0 (T0), 1 hour, and 2 hours, and frozen at −80° C.
HPLC column (Kinetex® 5 μm C18 100 Å, LC Column 50×4.6 mm) was equilibrated for 15 minutes with 35% acetonitrile and 65% 10 mM ammonium acetate with 0.1% formic acid in water. A volume of 10 μL of each sample was injected into Waters 2695 Separations Module with a 2996 Photodiode Array Detector. Samples were run isocratically (35% acetonitrile and 65% 10 mM ammonium acetate with 0.1% formic acid in water) for 2 minutes. […] An average of 3 measurements was run for each treatment sample.
The HPLC results as reported in FIG. 2 are the average of 3 sample measurements.

soybean plants [2] = experiment: V1 soybean bioassay of dicamba reacted with ChD with or without MnSO4
Procedure: Soybean plants (variety Morsoy Xtra) were planted in Timberline soil (2 seeds per pot) and grown for 12 days under controlled environmental growth conditions: 300 μmol m^−2 s^−1 (light photons) for a 13/11 light/day cycle and a 21° C. day/15° C. night temperature range until the V1 stage of development.
The dilution to achieve 100 ppm or 100 mg/L was made in 25 mM HEPES pH 7 in a 10 mL total volume. […] The ChD enzyme production was centrifuged to remove any cellular debris and then divided into aliquots of 100 μL containing the Bacillus subtillis (A64) filtrate with the ChD expressed enzyme. […] The reactions were incubated at 37° C. with 400 ppm stirring for two hours. Aliquots of the reactions were collected and stored at −80° C.

[3] = oxidation of NADH
Source text: Spectra were read from 200-700 nm with a BioTek SYNERGY HTX plate reader (BioTek Instrument Inc.).
NADH disappears when the molecule is oxidized to NAD^+.

soybean seedlings = experiment: Spray of enzyme-treated dicamba solution onto soybean seedlings; assay type: in vivo; conditions: one week
Procedure: Salicylate monooxygenase (SM, SEQ ID NO: 21) and hydroxyphenylacetate monooxygenase (HPAM, SEQ ID NO: 30) were immobilized on particles. […] Aliquots (1 ml) were taken from incubated samples at 0 minutes, 10 minutes, 30 minutes, 1 hour, 5 hours, 24 hours and 30 hours after the introduction of SM and immediately frozen to stop the detoxification reaction. NADPH consumption was quantified by measuring loss of absorbance at 340 nm using a spectrophotometer. Results for SM are shown in panel A of FIG. 10 and results for HPAM are shown in panel A of FIG. 11. Consumption of NADPH is proportional to the degradation of dicamba.
Immediately after taking the absorbance measurements, the 1 ml aliquots were mixed with a nonionic organosilicone surfactant copolymer (0.1% SILWET L77) and 200 μL of the mixture was sprayed onto 2.5-week-old soybean seedlings (six plants per treatment group, on average). The use of the surfactant ensured even distribution of the solutions on the plants. Control plants were sprayed with water+surfactant alone or dicamba+surfactant alone. After one week, the degree of herbicide damage or the degree of protection from dicamba-induced injury (in plants treated with SM) was assessed visually.

[4] = Absorbance spectra assay of dicamba degradation by ChD or CAC; conditions: dicamba (CLASH) 200 mg/L alone (no enzyme), 50 mM HEPES pH 7.0, one hour at 37° C.
[5] = Spray tank cleaning procedure using salicylate monooxygenase to remove dicamba; conditions: spray application using dicamba
sensitive plants = conditions: in vivo; cited from earlier work
soybean plants [6] = experiment: Trifoliate damage scoring of soybean treated with SM1-dicamba reaction products; assay type: in vivo; design: key: 0: No visible damage; 1: youngest trifoliate has moderate yellowing or curling; 2: youngest trifoliate has moderate yellowing or curling; 3: youngest trifoliate has severe yellowing or curling; 4: youngest trifoliate is completely dead or shriveled; 5: plant is completely necrotic (dead); conditions: V1 soybean (Morsoy Xtra), 100 μL reaction product diluted 1:24 with 0.01% SILWET L-77 on trifoliate leaves, 6 plants; Time (hours) 2; scale 0-5
Source text: These SM1-dicamba degradation products were applied to soybean seedlings (variety, Morsoy Xtra). […] The plants were scored based on trifoliate damage using the scale as described in Table 27.

[7] = NADPH consumption by immobilized monooxygenases with 2,4-D; assay type: biochemical; conditions: immobilized enzyme, 2,4-D 150 μM, 30° C., 60 minutes, vs no enzyme negative control (FIG. 3)
Procedure: Monooxygenases can be used to detoxify herbicides in a solution. Monooxygenases use NADPH as a co-factor when degrading substrates. Consumption of NADPH is proportional to the degradation of the substrate.
The ability of each of these enzymes to detoxify 2,4-D was evaluated in a similar manner. […] Aliquots were taken from the samples at 30 minute and one hour timepoints, and NADPH consumption was assessed by measuring absorbance at 340 nm.
(§1) An additional experiment was performed to assess the substrate specificity of the salicylate monooxygenase (SM, SEQ ID NO: 21). […] The assay buffer also contained 0.5 mM FeSO4, 0.5 mM NADPH, 10 mM MgCl2, and 25 mM HEPES (pH 7). After 60 minutes, absorbance at 340 nm was measured to detect NADPH consumption. Data are represented as averages+/−SD from three independent reads of each reaction.

[8] = NADPH consumption by immobilized monooxygenases with dicamba; assay type: biochemical; conditions: immobilized enzyme, dicamba 150 μM, 30° C., 60 minutes, vs no enzyme negative control (FIG. 3)
[9] = NADPH consumption by immobilized salicylate monooxygenase with salicylic acid; assay type: biochemical; conditions: immobilized enzyme, salicylic acid 150 μM, 30° C., 60 minutes (FIG. 3)
Procedure: as §1

lentil plants = experiment: Lentil seeds coated with immobilized enzyme, grown in dicamba-containing soil; assay type: in vivo
Procedure: For each treatment group, eighteen lentil seeds were coated with immobilized salicylate monooxygenase (SM, SEQ ID NO: 21) or hydroxyphenylacetate monooxygenase (HPAM, SEQ ID NO: 30), or with a water-only control (H2O) or a control containing only the particles used for immobilization, without any enzyme (“Particle Alone”). […] 50 ml of water was selected as this is the saturation point of this soil at this scale. Herbicides were allowed to sit in the soil for 24 hours before planting of coated seeds. Germination rate was measured at one week and root and shoot lengths were measured after two weeks.
Further data illustrating the protective effects of salicylate monooxygenase (SM) and hydroxyphenylacetate monooxygenase (HPAM) on lentil plants grown in dicamba-containing soil are provided in FIGS. 6-9. Lentil seeds were treated as described above with water alone, particle alone, or enzyme immobilized on a particle. […] Growth (shoot and root length) was measured at two weeks.

[10] = dicamba 100 ppm, n=6, scale 0-5

COc1c(Cl)ccc(Cl)c1C(=O)O [Dicamba, 3,6-dichloro-2-methoxybenzoic acid]
damage to or protection of soybean crop (size and growth vs untreated control) (soybean): significant damage to the crops
Percent Dicamba Concentration Relative to T0 control ([1]; Time 0 hours): 100.0%
Dicamba (ppm) ([1]; Time 0 hours, 25 mM HEPES pH 7, 37° C.): 34.9 ppm
Percent Dicamba Concentration Relative to T0 control ([1]; Time 1 hour): 113.6%
Dicamba (ppm) ([1]; Time 1 hour, 25 mM HEPES pH 7, 0.5 mM NADH where stated, 37° C.): 39.7 ppm
Percent Dicamba Concentration Relative to T0 control ([1]; Time 2 hours): 106.0%
Dicamba (ppm) ([1]; Time 2 hours, 25 mM HEPES pH 7, 0.5 mM NADH where stated, 37° C.): 37.0 ppm
Average Epinasty Score (soybean plants [2]; [10]): 3.0
average trifoliate damage score (soybean plants [2]; [10]): 3.5
average trifoliate damage score (soybean plants [2]; dicamba alone at 100 ppm, 150 ppm and 200 ppm): 3.5-3.6
Absorbance at 340 nM ([3]; Time 1 hour): 0.059
Absorbance at 340 nM ([3]; Time 2 hours): 0.058
Absorbance at 340 nM ([3]; Time T0): 0.056
herbicide damage or protection from dicamba-induced injury, assessed visually (soybean seedlings; 2.5-week-old soybean seedlings sprayed with 208 μM dicamba solution with or without immobilized enzyme): significant curling of the leaves and stunted growth
Absorbance Maxima at Wavelength (λ) 230 [4]: 1.597 and 1.5967
Absorbance Maxima at Wavelength (λ) 259 [4]: 0.1597
Absorbance Maxima at Wavelength (λ) 280 [4]: 0.2845
safe zone concentration in rinsate (no injury or harm to the plant or the environment) [5]: ≤ 15 mg/L
dicamba spray level at which sensitive plants show herbicide damage with pronounced symptoms (sensitive plants): 0.017 kg/ha
average trifoliate damage score (soybean plants [6]): 4

B1: SM: salicylate monooxygenase from Bacillus cereus BGSC 6E1, amino acid SEQ ID NO: 21 (nucleotide SEQ ID NO: 1) (protein, listed as Bacillus cereus)
chain: MNNVIIIGGGIAGLCAAISLQKIGLDVKVYDKNTEPTVAGAGIIIAPNAMQALELYGISKKIKKFGNESDGFNLVSEKGTTFNKLIIPTCYPKMYSIHRKDLHQLLLSELKEDTVKWGKECVKIEQNEANALKIVFQDGSEALGNILIAADGIHSVIRKQVTQGDNYRYAGYTCWRGVTPANNLSLTNDFIETWGTNGRFGIVPLPNNEVYWYALINAKARDPKYKAYTTTDLYNHFKTYHNPIPSILKNASDIDMIHRDIIDITPMKQFFDKRIVFIGDAAHALTPNLGQGACQAIEDAIILAECIKNNAHYRQAFLEYEQKRRDRIEKISNTAWKVGKMAQIESKPLTLVRNEVMKRMPKWVSEKRTHELYSFHL
NADPH consumption [7]: statistically significant levels
NADPH consumption [8]: statistically significant levels
NADPH consumption [9]: higher activity
incubation time of enzyme with dicamba giving plants equivalent to the water control (soybean seedlings; 208 μM dicamba, immobilized enzyme, 30° C., soybean seedlings): ≤ 10 min
germination rate (lentil plants; lentil seeds coated with immobilized enzyme, soil with dicamba 0.1× or […] label rate, one week, vs water and particle-alone controls): positive effect
shoot length (lentil plants; two-week-old lentil, soil with dicamba 0.1× label rate (0.588 mg/L), vs water only or particle only controls (FIG. 6, FIG. 8)): increased shoot lengths
